# Assay results reported in ChEMBL document CHEMBL1131503, “Design and synthesis of enantiomers of 3,5-dinitro-o-tyrosine: alpha-amino-3-hydroxy-5-methyl-4-isoxazolepropanoic acid (AMPA) receptor antagonists” (J Med Chem, 1998).
# Molecular target: Glutamate receptor ionotropic, AMPA (Rattus norvegicus) (UniProt P19491+P19492+P19493+P19490)
# Assay: The compound was tested for the % displacement of [3H]AMPA binding to Ionotropic glutamate receptor AMPA in rat brain membranes at a concentration of 100 uM
# Type: cell membranes
row,Structure (SMILES),Displacement [%]
1,O=[N+]([O-])c1cc2nc(O)c(O)nc2cc1[N+](=O)[O-],99
2,N[C@H](Cc1cc([N+](=O)[O-])cc([N+](=O)[O-])c1O)C(=O)O,58
3,NC(Cc1ccccc1OCC(=O)O)C(=O)O (centres undefined),20
4,CC(C)(C)OC(=O)NC(Cc1cc([N+](=O)[O-])cc([N+](=O)[O-])c1O)C(=O)O (centres undefined),17
5,COc1c(CC(N)C(=O)O)cc([N+](=O)[O-])cc1[N+](=O)[O-] (centres undefined),66
6,COc1c(CC(NC(=O)OC(C)(C)C)C(=O)O)cc([N+](=O)[O-])cc1[N+](=O)[O-] (centres undefined),26
7,N[C@@H](Cc1cc([N+](=O)[O-])cc([N+](=O)[O-])c1O)C(=O)O,78
8,CC(=O)NC(Cc1cc([N+](=O)[O-])cc([N+](=O)[O-])c1O)C(=O)O (centres undefined),14
9,NC(Cc1cc([N+](=O)[O-])cc([N+](=O)[O-])c1O)C(=O)O (centres undefined),76
